Type: in vivo, human
Settings: for maximal mean blood (serum) level: single sublingual dose of Avidekel oil, 4 drops (6.4 mg Δ9-THC and 26 mg CBD), N=7, LC-MS/MS
Experimental: Blood samples were withdrawn at time 0 and after administration of Avidekel oil extract, a sublingual dose 4 drops. Blood samples were withdrawn in intervals of 15, 30, 45, 60 and 90 min., and 2, 3, 4, 5, and 6 h., and stored at −70° C. until analysis at NMS Labs using LC-MS/MS.
FIG. 2A-2D show mean cannabinoid blood levels after administration of a single dose of Avidekel oil (6.4 mg Δ^9-THC and 26 mg CBD).

[1] = single dose of Avidekel oil (6.4 mg Δ9-THC and 26 mg CBD), N=7

| Compound | mean blood level after 90 min [1] [µg/mL] | mean blood level reached during the 6 h period (still rising) [1] [µg/mL] | blood levels 6 h after administration [1] | maximal mean blood (serum) level [ng/mL] | mean blood level after the drop from the maximum (single dose of Avidekel oil (6.4 mg Δ9-THC and 26 mg CBD), N=7, within 6 h sampling period) [µg/mL] |
| --- | --- | --- | --- | --- | --- |
| CCCCCc1cc(O)c2c(c1)OC(C)(C)[C@@H]1CCC(C(=O)O)=C[C@@H]21 [Δ^9 Carboxy THC] | 0.0345 ± 0.0477 | 0.0755 ± 0.077 | – | – | – |
| CCCCCc1cc(O)c2c(c1)OC(C)(C)[C@@H]1CCC(C)=C[C@@H]21 [Δ^9-THC, (−)-(6aR,10aR)-6,6,9-Trimethyl-3-methylcyclohex-2-en-pentyl-6a,7,8,10α-tetrahydro-6H-benzo[c]chromen-1-ol, reference compound] | – | – | typical to those after 24 hours of Cannabis washout | 2.3 ± 2.2 | – |
| CCCCCc1cc(O)c2c(c1)OC(C)(C)[C@@H]1CCC(CO)=C[C@@H]21 [11-Hydroxy Δ^9-THC] | – | – | – | 4.5 ± 4.2 | 0.0019 ± 0.0011 |
| C=C(C)[C@@H]1CCC(C)=C[C@H]1c1c(O)cc(CCCCC)cc1O [CBD, 2-[(1R,6R)-6-isopropenyl-3-1-yl]-5-pentylbenzene-1,3-diol, reference compound] | – | – | – | 6.2 ± 5.9 | – |
